# From US20130131075A1, “NEW COMPOUNDS” (Boehringer Ingelheim International GmbH, priority 2009, published 2013)
# Target: T1, cynomolgus BK1-receptor (Macaca fascicularis, UniProt Q3BCU0)
# T1 construct: expressed in transfected cells; host or cells: CHO cells (homogenate)
# T1 sequence (Q3BCU0 1-352): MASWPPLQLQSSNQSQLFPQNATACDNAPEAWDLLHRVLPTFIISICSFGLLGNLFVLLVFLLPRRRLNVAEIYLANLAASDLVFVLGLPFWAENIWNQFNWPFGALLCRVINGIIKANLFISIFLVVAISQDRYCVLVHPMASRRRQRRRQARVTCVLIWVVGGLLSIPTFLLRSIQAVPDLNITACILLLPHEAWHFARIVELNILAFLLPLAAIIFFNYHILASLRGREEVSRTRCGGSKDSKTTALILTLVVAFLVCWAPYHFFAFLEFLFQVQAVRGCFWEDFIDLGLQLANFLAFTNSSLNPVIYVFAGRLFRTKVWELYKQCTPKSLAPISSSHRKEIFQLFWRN
# Test: cynoBK1-receptor binding assay
# Settings: CHO cells expressing cynomolgus BK1-receptor, radioligand kallidine (DesArg10,Leu9)
# Outline: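 Ki derived by non-linear fitting of concentration-binding curves. Test compound competed against 0.5 to 5.0 nM tritiated kallidine (DesArg10,Leu9) on cynomolgus BK1-CHO cell homogenate (50 to 250 μg protein/assay) for 60-180 minutes at ambient temperature, then filtered. 1.0 μM kallidine (DesArg10) set non-specific binding.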
row,Ki,Compound
1,0.02 µM,CCNc1ccc(C(=O)NC2(C(=O)NCc3ccc(Nc4ccc(Br)cc4C(F)(F)F)cn3)CC2)cn1 [(334)]
2,0.028 µM,CCCNc1ccc(C(=O)NC2(C(=O)NCc3ccc(Nc4ccc(Br)cc4C(F)(F)F)cn3)CC2)cn1 [(335)]
3,0.049 µM,O=C(NC1(C(=O)NCc2ccc(Nc3ccc(F)cc3C(F)(F)F)cn2)CC1)c1cncc(Cl)c1 [(339)]
4,0.069 µM,Cc1ccc(C(=O)NC2(C(=O)NCc3ccc(Nc4ccc(F)cc4C(F)(F)F)cn3)CC2)cn1 [(341)]
5,0.0072 µM,CNc1ccc(C(=O)NC2(C(=O)NCc3ccc(Nc4ccc(Br)cc4C(F)(F)F)cn3)CC2)cn1 [(343)]
6,0.012 µM,CNc1ccc(C(=O)NC2(C(=O)NCc3ccc(Nc4ccc(Cl)cc4C(F)(F)F)cn3)CC2)cn1 [(347)]
7,0.648 µM,Nc1ccc(C(=O)N[C@@]2(C(=O)NCc3ccc(Nc4ccc(F)cc4C(F)(F)F)cn3)CCOC2)cn1 [(349)]
8,0.043 µM,O=C(NC1(C(=O)NCc2ccc(Nc3ccc(Cl)cc3C(F)(F)F)cn2)CC1)c1cnc(O)nc1 [(350)]
9,0.024 µM,O=C(NC1(C(=O)NCc2ccc(Nc3ccc(Cl)cc3C(F)(F)F)cn2)CC1)c1cncc(F)c1 [(351)]
10,0.059 µM,O=C(NC1(C(=O)NCc2ccc(Nc3ccc(Cl)cc3C(F)(F)F)cn2)CC1)c1cncc(Cl)c1 [(352)]
11,0.052 µM,Cc1cncc(C(=O)NC2(C(=O)NCc3ccc(Nc4ccc(Cl)cc4C(F)(F)F)cn3)CC2)c1 [(353)]
12,0.433 µM,O=C(NC1(C(=O)NCc2ccc(Nc3ccc(Cl)cc3C(F)(F)F)cn2)CC1)c1ccnc(F)c1 [(355)]
13,0.037 µM,O=C(NC1(C(=O)NCc2ccc(Nc3ccc(Cl)cc3C(F)(F)F)cn2)CC1)c1cnsc1 [(358)]
14,0.0014 µM,Nc1ncc(C(=O)NC2(C(=O)NCc3ccc(Nc4ccc(Cl)cc4C(F)(F)F)cn3)CC2)cn1 [(370)]
15,0.0061 µM,CCc1ncc(C(=O)NC2(C(=O)NCc3ccc(Nc4ccc(Cl)cc4C(F)(F)F)cn3)CC2)cn1 [(371)]
16,0.024 µM,O=C(NC1(C(=O)NCc2ccc(Nc3ccc(Cl)cc3C(F)(F)F)cn2)CC1)c1cn[nH]c1 [(372)]
17,0.095 µM,Cn1cc(C(=O)NC2(C(=O)NCc3ccc(Nc4ccc(Cl)cc4C(F)(F)F)cn3)CC2)cn1 [(373)]
18,0.061 µM,COc1cncc(C(=O)NC2(C(=O)NCc3ccc(Nc4ccc(F)cc4C(F)(F)F)cn3)CC2)c1 [(376)]
19,0.045 µM,CNc1ccc(C(=O)NC2(C(=O)NCc3ccc(Nc4ccc(F)cc4C(F)(F)F)cn3)CC2)cn1 [(377)]
20,0.0046 µM,Nc1ncc(C(=O)NC2(C(=O)NCc3ccc(Nc4ccc(Cl)cc4C(F)(F)F)cn3)CC2)cc1Br [(378)]
21,0.0065 µM,CCCNc1ncc(C(=O)NC2(C(=O)NCc3ccc(Nc4ccc(Cl)cc4C(F)(F)F)cn3)CC2)cn1 [(380)]
22,0.0068 µM,CC(C)Nc1ncc(C(=O)NC2(C(=O)NCc3ccc(Nc4ccc(Cl)cc4C(F)(F)F)cn3)CC2)cn1 [(382)]
23,0.021 µM,O=C(NC1(C(=O)NCc2ccc(Nc3ccc(F)cc3C(F)(F)F)cn2)CC1)c1cnc2[nH]ccc2c1 [(384)]
24,0.0094 µM,N#Cc1ncc(C(=O)NC2(C(=O)NCc3ccc(Nc4ccc(Cl)cc4C(F)(F)F)cn3)CC2)cn1 [(385)]
25,0.015 µM,O=C(NC1(C(=O)NCc2ccc(Nc3ccc(Cl)cc3C(F)(F)F)cn2)CC1)c1ccc(NC2CC2)nc1 [(389)]
26,0.0073 µM,CCOc1ncc(C(=O)NC2(C(=O)NCc3ccc(Nc4ccc(Cl)cc4C(F)(F)F)cn3)CC2)cn1 [(390)]
27,0.0093 µM,Cc1cc(C(=O)NC2(C(=O)NCc3ccc(Nc4ccc(F)cc4C(F)(F)F)cn3)CC2)cnc1N [(391)]

# More lines, now with the values behind:
row,Compound,Ki
1,O=C(N[C@@]1(C(=O)NCc2ncc(Nc3ccc(Cl)cc3C(F)(F)F)cc2F)CCOC1)c1cncc(O)c1 [(331)],0.066 µM
2,O=C(N[C@@]1(C(=O)NCc2ccc(Nc3ccc(Cl)cc3C(F)(F)F)cc2)CCOC1)c1cncnc1 [(332)],0.041 µM
3,COc1ncc(C(=O)N[C@@]2(C(=O)NCc3ccc(Nc4ccc(Cl)cc4C(F)(F)F)cc3)CCOC2)cn1 [(333)],0.089 µM
4,O=C(N[C@@]1(C(=O)NCc2ccc(Nc3ccc(Cl)cc3C(F)(F)F)cc2)CCOC1)c1cncs1 [(336)],0.567 µM
5,COc1cncc(C(=O)N[C@@]2(C(=O)NCc3ccc(Nc4ccc(Cl)cc4C(F)(F)F)cc3)CCOC2)c1 [(337)],0.312 µM
6,O=C(NC1(C(=O)NCc2ccc(Nc3ccc(F)cc3C(F)(F)F)cn2)CC1)c1cncc(C(F)(F)F)c1 [(340)],0.028 µM
7,Cc1cc(Nc2ccc(F)cc2C(F)(F)F)cnc1CNC(=O)[C@]1(NC(=O)c2cncc(N)c2)CCOC1 [(342)],0.05 µM
8,Cc1ncc(C(=O)NC2(C(=O)NCc3ncc(Nc4ccc(F)cc4C(F)(F)F)cc3C)CC2)cn1 [(344)],0.0019 µM
9,Cc1ncc(C(=O)N[C@@]2(C(=O)NCc3ncc(Nc4ccc(Cl)cc4C(F)(F)F)cc3C)CCOC2)cn1 [(345)],0.017 µM
10,Cc1cc(Nc2ccc(Cl)cc2C(F)(F)F)cnc1CNC(=O)[C@]1(NC(=O)c2cncc(N)c2)CCOC1 [(346)],0.048 µM
11,Nc1ccc(C(=O)N[C@@]2(C(=O)NCc3ncc(Nc4ccc(F)cc4C(F)(F)F)cc3F)CCOC2)cn1 [(348)],0.031 µM
12,O=C(NC1(C(=O)NCc2ccc(Nc3ccc(Cl)cc3C(F)(F)F)cn2)CC1)c1cncc(C(F)(F)F)c1 [(354)],0.027 µM
13,COc1cc(C(=O)NC2(C(=O)NCc3ccc(Nc4ccc(Cl)cc4C(F)(F)F)cn3)CC2)on1 [(356)],0.022 µM
14,O=C(NC1(C(=O)NCc2ccc(Nc3ccc(Cl)cc3C(F)(F)F)cn2)CC1)c1ccns1 [(357)],0.044 µM
15,Cc1cc(Nc2ccccc2C(F)(F)F)cnc1CNC(=O)[C@]1(NC(=O)c2cncc(N)c2)CCOC1 [(359)],0.125 µM
16,Cc1ncc(C(=O)NC2(C(=O)NCc3ncc(Nc4ccc(Cl)cc4C(F)(F)F)cc3C)CC2)cn1 [(360)],0.0025 µM
17,Cc1cc(Nc2ccc(Cl)cc2C(F)(F)F)cnc1CNC(=O)C1(NC(=O)c2cncc(N)c2)CC1 [(361)],0.01 µM

row,Compound,Ki
1,O=C(NC1(C(=O)NCc2ccc(Nc3ccc(Cl)cc3C(F)(F)F)cn2)CC1)C(F)(F)F [(362)],0.101 µM
2,O=C(CC(F)(F)F)NC1(C(=O)NCc2ccc(Nc3ccc(Cl)cc3C(F)(F)F)cn2)CC1 [(363)],0.045 µM
3,N#CCC(=O)NC1(C(=O)NCc2ccc(Nc3ccc(Cl)cc3C(F)(F)F)cn2)CC1 [(364)],0.077 µM
4,O=C(N[C@@]1(C(=O)NCc2ccc(Nc3ccc(F)cc3C(F)(F)F)cc2)CCOC1)c1cnc2cc[nH]c2c1 [(365)],0.376 µM
5,Cc1ncc(C(=O)N[C@@]2(C(=O)NCc3ncc(Nc4ccccc4C(F)(F)F)cc3C)CCOC2)cn1 [(366)],0.033 µM
6,N#CC1(C(=O)NC2(C(=O)NCc3ccc(Nc4ccc(Cl)cc4C(F)(F)F)cn3)CC2)CC1 [(367)],0.508 µM
7,CC(C#N)C(=O)NC1(C(=O)NCc2ccc(Nc3ccc(Cl)cc3C(F)(F)F)cn2)CC1 (stereo not drawn) [(368)],0.042 µM
8,O=C(NC1(C(=O)NCc2ccc(Nc3ccc(Cl)cc3C(F)(F)F)cn2)CC1)c1ccno1 [(369)],0.037 µM
9,Cc1ncc(C(=O)NC2(C(=O)NCc3ncc(Nc4ccccc4C(F)(F)F)cc3C)CC2)cn1 [(374)],0.0055 µM
10,Cc1cc(Nc2ccccc2C(F)(F)F)cnc1CNC(=O)C1(NC(=O)c2cncc(N)c2)CC1 [(375)],0.048 µM
11,O=C(NC1(C(=O)NCc2ccc(Nc3ccc(Cl)cc3C(F)(F)F)cn2)CC1)c1cnc(NC2CC2)nc1 [(379)],0.0055 µM
12,COc1cncc(C(=O)N[C@@]2(C(=O)NCc3ccc(Nc4ccc(F)cc4C(F)(F)F)cc3)CCOC2)c1 [(381)],0.093 µM
13,O=C(N[C@@]1(C(=O)NCc2ccc(Nc3ccc(F)cc3C(F)(F)F)cc2)CCOC1)c1cnc2[nH]ccc2c1 [(383)],0.225 µM
14,Cc1ncc(C(=O)NC2(C(=O)NCc3ccc(Nc4ccc(Cl)cc4C(F)F)cn3)CC2)cn1 [(386)],0.015 µM
15,Cc1ncc(C(=O)N[C@@]2(C(=O)NCc3ncc(Nc4ccc(F)cc4C(F)(F)F)cc3C)CCOC2)cn1 [(387)],0.01 µM
16,O=C(N[C@@]1(C(=O)NCc2ccc(Nc3ccc(Cl)cc3C(F)(F)F)cc2)CCOC1)c1cnc2[nH]ccc2c1 [(388)],0.386 µM
